Our source for the Ki values is patent US10919937B2, “Bicyclic peptide ligands and uses thereof” (BicycleTx Limited, priority 2018, dated 2021).

*1 amine or outer side, *2 acyl side, *3 side chain or, on linkers, in order; H or OH if unused. Where a SMILES comes first, the peptide text is derived from it. Bridges are numbered along the chain shown (N, C = ends). [ ]: non-standard residue; d: D form. X11 = O=C(C[*:1])N1CCN(c2ccc(-c3nc(-c4ccc(N5CCN(C(=O)C[*:2])CC5)cc4)nc(-c4ccc(N5CCN(C(=O)C[*:3])CC5)cc4)n3)cc2)CC1; X14 = CC(C)(C)[C@H](N[*:3])C(=O)C[C@@H](CSCc1ccc(-c2nc(-c3ccc(C[*:1])cc3)nc(-c3ccc(C[*:2])cc3)n2)cc1)C(N)=O; X10 = O=C(C[*:1])N1CCC(N2CCN(c3nc(N4CCN(C5CCN(C(=O)C[*:2])CC5)CC4)nc(N4CCN(C5CCN([*:3])CC5)CC4)n3)CC2)CC1; X12 = CC(C)(C)[C@H](N[*:3])C(=O)C[C@@H](CSCc1ccc(CN(Cc2ccc(C[*:1])cc2)Cc2ccc(C[*:2])cc2)cc1)C(N)=O; X6 = O=C(C[*:1])N1Cc2cccc(c2)CN(C(=O)C[*:2])Cc2cccc(c2)CN(C(=O)C[*:3])Cc2cccc(c2)C1; X3 = CC(C)(C)[C@H](N[*:1])C(=O)C[C@@H](CSCc1ccc(C(=O)[*:2])cc1)C(N)=O; X1 = c1cc(-c2nc(-c3ccc(C[*:2])cc3)nc(-c3ccc(C[*:3])cc3)n2)ccc1C[*:1]; X4 = O=C(c1ccc(C[*:1])cc1)N1CN(C(=O)c2ccc(C[*:2])cc2)CN([*:3])C1; X9 = CC(C)(C)[C@H](N[*:1])C(=O)C[C@@H](CSCC(=O)[*:2])C(N)=O; 1Nal = N[C@@H](Cc1cccc2ccccc12)C(=O)O; TBMB = c1c(C[*:1])cc(C[*:3])cc1C[*:2]; Tle = CC(C)(C)[C@H](N)C(=O)O

The first assay deals with MT1-MMP hemopexin domain (Homo sapiens, UniProt P50281). Briefly: MT1-MMP Direct Binding Fluorescence Polarization (Anisotropy) Assay. To be noted: MT1-MMP direct binding FP, n=2. As to the method:
Direct Binding Fluorescence Polarization or Anisotropy Assays are performed by titrating a constant concentration of fluorescent tracer (here, the fluoresceinated bicyclic peptide to be studied) with its binding partner (here, the MT1-MMP hemopexin domain). As the concentration of binding partner increases during the titration, the polarization signal changes in proportion to the fraction of bound and unbound material. This allows determination of […] (Kd) quantitatively. Assay data can be fit using standard ligand binding equations.
Typically, concentrations of the tracer are ideally well below the Kd of the tracer:titrant pair, and concentrations chosen are usually at ˜1 nM or less. The titrant (binding partner) concentration is varied from 0.1 nM up to typically 5 μM. The range is chosen such that the maximum change in fluorescent polarization can be observed. Buffers employed are phosphate buffered saline in the presence of 0.01% Tween. Experiments were run in black 384 well low-bind/low volume plates (Corning 3820), and the fluorescent polarization signal was measured using a BMG Pherastar FS plate reader. Fluorescent tracers referred to in the text are bicyclic peptides that have been fluoresceinated using 5,6-carboxyfluorescein. Fluoresceination may be performed on the N-terminal amino group of the peptide, which is separated from the bicycle core sequence by a sarcosine spacer (usually Sar5). This can be done during Fmoc solid phase synthesis or post-synthetically (after cyclization with the molecular scaffold reagent and purification) if the N-terminal amino group is unique to the peptide. Fluoresceination can also be performed on the C-terminus, usually on a Lysine introduced as the first C-terminal residue, which is then separated from the bicycle core sequence by a sarcosine spacer (usually Sar6). Thus, N-terminal tracers can have a molecular format described as Fluo-Gly-Sar5-A(BicycleCoreSequence), and (BicycleCoreSequence)-A-Sar6-K(Fluo) for a C-terminally fluoresceinated construct.
On the technique in general: Fluorescence polarisation rises when a labelled molecule tumbles more slowly, as on binding a larger partner.
As a reminder, the Ki is the dissociation constant of the complex between target and ligand, obtained from inhibition or displacement. `C[C@H](N)C(=O)N[C@H]1CSCC(=O)N2Cc3cccc(c3)CN3Cc4cccc(c4)CN(Cc4cccc(c4)C2)C(=O)CSC[C@H](NC(=O)[C@@H](C)NC(=O)[C@H](Cc2cccc4ccccc24)NC(=O)[C@H](CCC(=O)O)NC(=O)[C@H](CC(N)=O)NC(=O)[C@@H](C)NC1=O)C(=O)N[C@@H](CCC(=O)O)C(=O)N[C@@H](CC(=O)O)C(=O)N[C@@H](Cc1ccccc1)C(=O)N[C@@H](Cc1ccc(O)cc1)C(=O)N[C@@H](CC(=O)O)C(=O)N[C@@H](C(C)(C)C)C(=O)N[C@H](C(N)=O)CSCC3=O` [I-44] (H-AC[dA]NE[1Nal][dA]CEDFYD[Tle]C-NH2; linker 2-8-15 via X6): the Ki is ≥ 10 µM. Same read-out and setting: as for `C[C@H](N)C(=O)N[C@H]1CSCc2ccc(cc2)-c2nc3nc(n2)-c2ccc(cc2)CSC[C@H](NC(=O)[C@@H](C)NC(=O)[C@H](Cc2cccc4ccccc24)NC(=O)[C@H](CCC(=O)O)NC(=O)[C@H](CC(N)=O)NC(=O)[C@@H](C)NC1=O)C(=O)N[C@@H](CCC(=O)O)C(=O)N[C@@H](CC(=O)O)C(=O)N[C@@H](Cc1ccccc1)C(=O)N[C@@H](Cc1ccc(O)cc1)C(=O)N[C@@H](CC(=O)O)C(=O)N[C@@H](C(C)(C)C)C(=O)C[C@H](C(N)=O)CSCc1ccc-3cc1` [I-90] (H-AC[dA]NE[1Nal][dA]CEDFYD; linker 2-8-C via X14), the figure is < 0.5 µM; as for `C[C@H](N)C(=O)N[C@H]1CSCC(=O)N2CCN(CC2)c2ccc(cc2)-c2nc3nc(n2)-c2ccc(cc2)N2CCN(CC2)C(=O)CSC[C@H](NC(=O)[C@@H](C)NC(=O)[C@H](Cc2cccc4ccccc24)NC(=O)[C@H](CCC(=O)O)NC(=O)[C@H](CC(N)=O)NC(=O)[C@@H](C)NC1=O)C(=O)N[C@@H](CCC(=O)O)C(=O)N[C@@H](CC(=O)O)C(=O)N[C@@H](Cc1ccccc1)C(=O)N[C@@H](Cc1ccc(O)cc1)C(=O)N[C@@H](CC(=O)O)C(=O)N[C@@H](C(C)(C)C)C(=O)N[C@H](C(N)=O)CSCC(=O)N1CCN(CC1)c1ccc-3cc1` [I-94] (H-AC[dA]NE[1Nal][dA]CEDFYD[Tle]C-NH2; linker 2-8-15 via X11), < 0.5 µM. The same measure, in the same setting: as for `C[C@H](N)C(=O)N[C@H]1CSCc2ccc(cc2)CN2Cc3ccc(cc3)CSC[C@@H](C(N)=O)CC(=O)[C@H](C(C)(C)C)NC(=O)[C@H](CC(=O)O)NC(=O)[C@H](Cc3ccc(O)cc3)NC(=O)[C@H](Cc3ccccc3)NC(=O)[C@H](CC(=O)O)NC(=O)[C@H](CCC(=O)O)NC(=O)[C@H](CSCc3ccc(cc3)C2)NC(=O)[C@@H](C)NC(=O)[C@H](Cc2cccc3ccccc23)NC(=O)[C@H](CCC(=O)O)NC(=O)[C@H](CC(N)=O)NC(=O)[C@@H](C)NC1=O` [I-96] (H-AC[dA]NE[1Nal][dA]CEDFYD; linker 2-8-C via X12), the figure is < 0.5 µM; as for `C[C@H](N)C(=O)N[C@H]1CSCC(=O)N2CCC(CC2)N2CCN(CC2)c2nc3nc(n2)N2CCN(CC2)C2CCN(CC2)C(=O)CSC[C@H](NC(=O)[C@@H](C)NC(=O)[C@H](Cc2cccc4ccccc24)NC(=O)[C@H](CCC(=O)O)NC(=O)[C@H](CC(N)=O)NC(=O)[C@@H](C)NC1=O)C(=O)N[C@@H](CCC(=O)O)C(=O)N[C@@H](CC(=O)O)C(=O)N[C@@H](Cc1ccccc1)C(=O)N[C@@H](Cc1ccc(O)cc1)C(=O)N[C@@H](CC(=O)O)C(=O)N[C@@H](C(C)(C)C)C(=O)C[C@H](C(N)=O)CSCC(=O)N1CCC(CC1)N1CCN3CC1` [I-91] (H-AC[dA]NE[1Nal][dA]CEDFYD[X9]; linker 2-8-C via X10), < 0.5 µM; as for `C[C@H](N)C(=O)N[C@H]1CSCc2ccc(cc2)C(=O)N2CN3CN(C2)C(=O)c2ccc(cc2)CSC[C@H](NC(=O)[C@@H](C)NC(=O)[C@H](Cc2cccc4ccccc24)NC(=O)[C@H](CCC(=O)O)NC(=O)[C@H](CC(N)=O)NC(=O)[C@@H](C)NC1=O)C(=O)N[C@@H](CCC(=O)O)C(=O)N[C@@H](CC(=O)O)C(=O)N[C@@H](Cc1ccccc1)C(=O)N[C@@H](Cc1ccc(O)cc1)C(=O)N[C@@H](CC(=O)O)C(=O)N[C@@H](C(C)(C)C)C(=O)C[C@H](C(N)=O)CSCc1ccc(cc1)C3=O` [I-93] (H-AC[dA]NE[1Nal][dA]CEDFYD[X3]; linker 2-8-C via X4), < 0.5 µM.

For another assay, the target named is CAIX (Homo sapiens, UniProt Q16790). Description: CAIX Competition Binding Assay (competition fluorescence polarization).
Settings: not given
As to the method:
CAIX Competition Binding Assay. Affinity of the peptides of the invention for human CAIX (Ki) is determined using a competition fluorescence polarization assay analogous to that described in Dubois et al. (2011) Radiotherapy and Oncology 99(3), 424-43 using A-(CAECWIDGWVPC)-A-Sar6-K(Fl), (SEQ ID NO: 11), as the fluorescent ligand.
Compounds described as “B” have a K, equal to or greater than 0.5 μM and less than 1 μM. Compounds described as “C” have a K, equal to or greater than 1 μM and less than 10 μM. Compounds described as “D” have a K, equal to or greater than 10 μM.
For the compound `CC(=O)N[C@H]1CSCc2cc3cc(c2)CSC[C@@H](C(N)=O)NC(=O)[C@@H]2CCCN2C(=O)[C@H](C(C)C)NC(=O)[C@H](Cc2c[nH]c4ccccc24)NC(=O)CNC(=O)[C@H](CC(=O)O)NC(=O)[C@H](C(C)C)NC(=O)[C@H](Cc2c[nH]c4ccccc24)NC(=O)[C@H](Cc2ccc(cc2)OC3)NC(=O)[C@H](CCC(=O)O)NC(=O)[C@H]([C@@H](C)O)NC1=O` [I-108] (Ac-CTEYWVDGWVPC-NH2; linker 1-4-12 via TBMB), the inhibition constant Ki is < 0.5 µM.

The assay is the same for the next values; noted with them: human CAIX, competition FP, n = 2; read-out: Ki.
Regarding `CC(=O)N[C@H]1CSCc2ccc(cc2)-c2nc3nc(n2)-c2ccc(cc2)CSC[C@H](NC(=O)[C@H](CCC(=O)O)NC(=O)[C@H]([C@@H](C)O)NC1=O)C(=O)N[C@@H](Cc1c[nH]c2ccccc12)C(=O)N[C@@H](C(C)C)C(=O)N[C@@H](CC(=O)O)C(=O)NCC(=O)N[C@@H](Cc1c[nH]c2ccccc12)C(=O)N[C@@H](C(C)C)C(=O)N1CCC[C@H]1C(=O)N[C@H](C(N)=O)CSCc1ccc-3cc1` [I-98] (Ac-CTECWVDGWVPC-NH2; linker 1-4-12 via X1), the Ki was < 0.5 µM. Still for that read-out and setting: the same measure for `CC(C)[C@@H]1NC(=O)[C@H](Cc2c[nH]c3ccccc23)NC(=O)[C@@H]2CSCC(=O)N3Cc4cccc(c4)CN(Cc4cccc(c4)CN(Cc4cccc(c4)C3)C(=O)CSC[C@H](NC(=O)[C@H](C)NC(=O)CN(C)C(=O)CN(C)C(=O)CN(C)C(=O)CN(C)C(=O)CN(C)C(=O)CN(C)C(=O)CN(C)C(=O)CN(C)C(=O)CN(C)C(=O)CN(C)C(=O)CCN)C(=O)N[C@@H]([C@@H](C)O)C(=O)N[C@@H](CCC(=O)O)C(=O)N2)C(=O)CSC[C@@H](C(N)=O)NC(=O)[C@@H]2CCCN2C(=O)[C@H](C(C)C)NC(=O)[C@H](Cc2c[nH]c3ccccc23)NC(=O)CNC(=O)[C@H](CC(=O)O)NC1=O` [I-23]: > 10 µM; for `CC(=O)N[C@H]1Cc2ccc(cc2)OCc2cc3cc(c2)CSC[C@H](NC(=O)[C@H](CCC(=O)O)NC(=O)[C@H]([C@@H](C)O)NC1=O)C(=O)N[C@@H](Cc1c[nH]c2ccccc12)C(=O)N[C@@H](C(C)C)C(=O)N[C@@H](CC(=O)O)C(=O)NCC(=O)N[C@@H](Cc1c[nH]c2ccccc12)C(=O)N[C@@H](C(C)C)C(=O)N1CCC[C@H]1C(=O)N[C@H](C(N)=O)Cc1ccc(cc1)OC3` [I-109] (Ac-YTECWVDGWVPY-NH2; linker 1-4-12 via TBMB): 0.5 to 1 µM.
